Tested on: HIV virus
Assay: Screening method for anti-HIV activity (NCI AIDS screening trial, XTT formazan, protection of virus-infected T4 lymphocytes)
Format: cell-based
Conditions: Human immunodeficiency virus 1, CCRF-CEM, infected culture treated, CEM cells, 6-7 days
Protocol: Description of the Screening Method for Anti-HIV Activity
The process is suitable for locating active substances which are effective in all phases of the virus proliferation cycle. The test principle is based on the destruction of the T4 lymphocytes by the HIV virus.
Small amounts of HIV virus are added to the cell cultures. At least two complete viral reproduction cycles are needed to destroy the T4 lymphocytes and to be able to evaluate the results.
Active substances that react with virions (virus-like particles), cells or with products of the viral genes in order to interact with viral activities and thus block proliferation of the viruses will protect the cells from destruction and lysis.
The test system is automated to permit examination of a large number of cells infected with viruses. Compounds which degenerate, denaturise or that are rapidly metabolised cannot, however, be reliably discovered using the test procedure.
AZT (azidothymidine) and DDC serve as positive controls for the test.
1. T4 lymphocytes (CEM cell line) are mixed with virus in the ratio of virus:cell of ca. 1:0.05 in microtiter plates.
2. […]
5. The individual cell cultures are analysed spectrophotometrically and examined microscopically to detect surviving cells in order to confirm the protective effect. […]
7. The activity of the tested compound is determined. […]

`Cc1cn([C@H]2C[C@H](N=[N+]=[N-])[C@@H](CO)O2)c(=O)[nH]c1=O` [AZT, 3'-azido-3'-desoxythymidine] was tested. Which EC50 did it give?
Its EC50 is 3.1 nM.

Source: US5985834A, “Nova- and decapeptides in the preparation of a drug for the treatment of aids” (ASTA Medica AG, priority 1993, dated 1999)
